We go through 21 compounds from patent publication US20120220577A1, “GLYCINE B ANTAGONISTS” (Merz Pharma GmbH & Co KgaA, priority 2009, published 2012).

Assay [1] deals with T1, glycine binding pocket of the NMDA receptor (Rattus norvegicus, UniProt P35439).
T1 construct: For isolation of the cell membranes, the cortices are homogenized; from tissue; host or cells: rat cerebral cortex membranes (male Sprague-Dawley)
Briefly: [3H]MDL-105,519 displacement studies (rat cortical membranes). As to the method:
Anaesthetised male Sprague-Dawley rats (200-250 g, Janvier, Le Genest-Isle, France) are decapitated and their brains removed rapidly. […] For isolation of the cell membranes, the cortices are homogenized in 20 volumes of ice-cold 0.32 M sucrose (Sigma-Aldrich, Taufkirchen, Germany) using a glass-Teflon homogenizer. The homogenate is centrifuged at 1000×g for 10 minutes, the pellet is discarded and the supernatant centrifuged at 20,000×g for 20 minutes. The resulting pellet is re-suspended in 20 volumes of distilled water and centrifuged for 20 minutes at 8000×g. The supernatant and the buffy coat are then centrifuged three times (48,000×g for 20 minutes) in the presence of 50 mM Tris-HCl, pH 8.0 (assay buffer). All centrifugation steps are carried out at 4° C. After resuspension in 5 volumes of 50 mM Tris-HCl, pH 7.5, the membrane suspension is frozen rapidly at −80° C. On the day of assay, the membranes are thawed and washed four times by resuspension in 50 mM Tris-HCl, pH 7.5, and centrifugation at 48,000×g for 20 minutes. The final pellet is suspended in assay buffer. […] The final protein concentration used for our studies is 400 μg/ml.
A robotic system designed for binding assays (Tecan Deutschland GmbH, Crailsheim, Germany) is loaded with the membrane solution, solutions for bound control (buffer/DMSO 20%), unlabeled glycine (1 mM) for evaluation of non-specific binding, all compounds to be tested (at 20-fold concentrations), radioligand and respective 96-well plates.
The protein/receptor concentration is held constant whereas the amount of specific bound radioligand is determined using increasing concentrations of ligand.
Firstly, the assay plates are loaded with membrane solution and are shaken at 4° C. The mother plates are then prepared by pipetting the compounds into assay buffer/20% DMSO to obtain the desired final concentrations (dose response curve with five different concentrations, e.g. 10, 3, 1, 0.3, and 0.1 μM). After transferring radioligand into the assay plates, the compounds are added (including the bound and the non-specific binding control). The final DMSO concentration is 1%. The assay plates are incubated and shaken at 4° C. for 1 h, before the mixture is exhausted as rapidly as possible via a vacuum manifold using the Multiscreen HTS glass fibre (type B) filter plates (Millipore, Schwalbach, Germany) under a constant vacuum of 450 mbar. The membranes are washed four times with cold assay buffer ([…]). 50 μL of Ultima Gold scintillation cocktail (PerkinElmer, Rodgau-Jügesheim, Germany) is added to the wet filter plates and incubated at room temperature overnight before counting the disintegration per minutes using a liquid scintillation counter (MicroBeta, PerkinElmer, Rodgau-Jügesheim, Germany).
The residual radioactivity after displacement of the test compound (n=5) is then corrected with respect to the set controls.

The target of assay [2] is NMDA receptor glycine B site (Rattus norvegicus, UniProt P35439). The assay can be described thus: Calcium FLIPR studies, rat cortical neurons (NMDA/D-Serine induced intracellular calcium). The class given is cell-based. More on the design: Primary neurons are prepared from cortices of embryonal rats at day 17 of pregnancy; endogenous in cells; host or cells: primary rat cortical neurons (E17, 11-13 DIV). The method, then: Antagonistic potencies of the test compounds are functionally evaluated using electrophysiological whole cell patch-clamp recordings and/or fluorometric intracellular Ca^2+-imaging (FLIPR) screens.
Sprague-Dawley rat embryos (E 17) are decapitated and neocortices are dissected, trypsinized and carefully triturated. The cell suspension is plated on poly-D-lysine pre-coated 96-well Plates (Greiner, Frickenhausen, Germany) at a cell density of 55.000 cells/well. The neurons are cultivated in Neurobasal media containing B27-Supplement and […] L-Glutamine (Biochrom) at 37° C. in a humidified atmosphere of 5% CO2/95% air. Medium is exchanged completely at day 4 and to 50% on day 7. At the time of experiments neurons are 11-13 days in vitro.
The increase of intracellular calcium after stimulation with 30 μM NMDA and 1 μM D-Serine is measured using the fluorometric imaging plate reader (FLIPR) and the Calcium-4-Kit (both Molecular Devices, Ismaning, Germany). Prior to addition of agonist or antagonist (5 different concentrations, n=5) the medium is aspirated and cells are washed once before loading with 150 μL of loading buffer (1 h at room temperature), consisting of Ca-4 sensitive dye reconstituted in extracellular bath solution, pH 7.3. Subsequently, plates are transferred to FLIPR to detect increases in intracellular calcium after the addition of agonist, measured as relative fluorescence units (RFU). Antagonists are pre-incubated with the cells for 10 min at room temperature before the addition of the agonist and co-agonist.
The fluorescence signal increase after addition of agonist reflects the increase of intracellular calcium. Inconsistencies in the amount of cells per well are normalised by using the spatial uniformity correction of the FLIPR software (Screenworks, Molecular Devices). The mean of replicated temporal data (n=5) is calculated and used for graphical representation. For the evaluation of the antagonistic potency, the calcium changes in response to different concentrations of antagonist are determined using an area under the curve (AUC) calculation. All responses (RFU-values) are determined as percentage of control (=maximum response at 30 μM NMDA and 1 μM D-Serine). IC50 values are calculated according the four parameter logistic equation using GraFit (Erithacus Software).
For orientation: A change in cytosolic calcium serves as a functional read-out for many receptors and channels.

Setting [3] is: displacement of 2 nM [3H]-MDL-105,519, rat cortical membranes, read-out: NMDA-MDL 105519-r-CTX - IC50.
Setting [4] is: rat cortical neurons, stimulation with 30 μM NMDA and 1 μM D-Serine, antagonist pre-incubated 10 min, read-out: NMDA-FLIPR-rCTX-NAM - IC50.

Each structure is given as a SMILES string. Where two headings read alike, the source gives them in different places.

For the compound `O=C(O)COc1cccc(NC(=O)COc2cc(C(=O)O)cc3cc(Cl)cc(Cl)c23)c1` [Example 2, 4-[(3-Carboxymethoxyphenylcarbamoyl)-methoxy]-5,7-dichloronaphthalene-2-carboxylic acid], the values for the IC50 in assay [1] (setting [3]) and in assay [2] (setting [4]) were 414 nM and 3170 nM, respectively. Taken in the same sequence, the figures for `CC(Oc1cc(C(=O)O)cc2cc(Cl)cc(Cl)c12)C(=O)Nc1ccc(CO)cc1` (stereo not drawn) [Example 16, 5,7-Dichloro-4-[1-(4-hydroxymethylphenylcarbamoyl)-ethoxy]-naphthalene-2-carboxylic acid] were 690 nM and 4660 nM. For `CC(Oc1cc(C(=O)O)cc2cc(Cl)cc(Cl)c12)C(=O)Nc1ccccc1CO` (stereo not drawn) [Example 17, 5,7-Dichloro-4-[1-(2-hydroxymethylphenylcarbamoyl)-ethoxy]-naphthalene-2-carboxylic acid], the IC50 – broadly, the concentration that gives 50% inhibition – was found to be 1190 nM in assay [1] and 12600 nM in assay [2]. As to `O=C(COc1cc(C(=O)O)cc2cc(Cl)cc(Cl)c12)NCc1cccc(CO)c1` [Example 22, 5,7-Dichloro-4-[(3-hydroxymethylbenzylcarbamoyl)-methoxy]-naphthalene-2-carboxylic acid], the figures for the IC50 in assay [1] (setting [3]) and in assay [2] (setting [4]) were 236 nM and 5400 nM, respectively. As for `CC(Oc1cc(C(=O)O)cc2cc(Cl)cc(Cl)c12)C(=O)Nc1cccc(CO)c1` (stereo not drawn) [Example 25, 5,7-Dichloro-4-[1-(3-hydroxymethylphenylcarbamoyl)-ethoxy]-naphthalene-2-carboxylic acid], the IC50 in assay [1] (setting [3]) came out at 1030 nM; in assay [2] (setting [4]), 7320 nM. As to `O=C(COc1cc(C(=O)O)cc2cc(Cl)cc(Cl)c12)NC(C(=O)O)c1ccccc1` (stereo not drawn) [Example 27, 4-{[(Carboxyphenylmethyl)-carbamoyl]-methoxy}-5,7-dichloronaphthalene-2-carboxylic acid], the IC50 in assay [1] (setting [3]) came to 790 nM; in assay [2] (setting [4]), 3500 nM. Taken in the same sequence, the figures for `CN(C(=O)COc1cc(C(=O)O)cc2cc(Cl)cc(Cl)c12)c1cccc(C(=O)O)c1` [Example 31, 4-{[(3-Carboxyphenyl)-methylcarbamoyl]-methoxy}-5,7-dichloronaphthalene-2-carboxylic acid] were 1090 nM and 4750 nM. Taken in the same sequence, the figures for `O=C(O)c1cc(OC(C(=O)O)c2ccccc2)c2c(Cl)cc(Cl)cc2c1` (stereo not drawn) [Example 32, 4-(Carboxyphenylmethoxy)-5,7-dichloronaphthalene-2-carboxylic acid] were 1510 nM and 6490 nM. On the same counts, the results for `Cc1ccc(S(=O)(=O)NC(=O)COc2cc(C(=O)O)cc3cc(Cl)cc(Cl)c23)cc1` [Example 36, 5,7-Dichloro-4-[2-oxo-2-(toluene-4-sulfonylamino)-ethoxy]-naphthalene-2-carboxylic acid] are 1520 nM and 5470 nM. Consider `O=C(O)c1cc(OCC(=O)N2Cc3ccccc3CC2C(=O)O)c2c(Cl)cc(Cl)cc2c1` (stereo not drawn) [Example 38, 2-[2-(3-Carboxy-6,8-dichloronaphthalen-1-yloxy)-acetyl]-1,2,3,4-tetrahydroisoquinoline-3-carboxylic acid], for which the IC50 worked out at 1350 nM in assay [1] (setting [3]) and 10600 nM in assay [2] (setting [4]). On the same counts, the results for `O=C(O)Cc1ccc(NC(=O)COc2cc(C(=O)O)cc3cc(Cl)cc(Cl)c23)cn1` [Example 46, 4-[(6-Carboxymethyl-pyridin-3-ylcarbamoyl)-methoxy]-5,7-dichloro-naphthalene-2-carboxylic acid] are 1230 nM and 9410 nM. As to `O=C(O)c1cc(OCC(=O)N2CCc3ccccc3C2)c2c(Cl)cc(Cl)cc2c1` [Example 52, 5,7-Dichloro-4-[2-(3,4-dihydro-1H-isoquinolin-2-yl)-2-oxo-ethoxy]-naphthalene-2-carboxylic acid], the IC50 worked out at 2290 nM in assay [1] (setting [3]) and 7350 nM in assay [2] (setting [4]).

Consider `O=C(COc1cc(C(=O)O)cc2cc(Cl)cc(Cl)c12)Nc1nnn[nH]1` [Example 64, 5,7-Dichloro-4-[(1H-tetrazol-5-ylcarbamoyl)-methoxy]-naphthalene-2-carboxylic acid], for which the IC50 in assay [1] (setting [3]) amounted to 1260 nM; in assay [2] (setting [4]) it was 9280 nM.

In the case of `O=C(O)c1cc(OC2CCN(c3ccccc3)C2=O)c2c(Cl)cc(Cl)cc2c1` (stereo not drawn) [Example 65, 5,7-Dichloro-4-(2-oxo-1-phenyl-pyrrolidin-3-yloxy)-naphthalene-2-carboxylic acid], the IC50 in assay [1] (setting [3]) stood at 1390 nM; in assay [2] (setting [4]), 7540 nM. Taken in the same sequence, the figures for `COCC(Oc1cc(C(=O)O)cc2cc(Cl)cc(Cl)c12)C(=O)Nc1ccccc1` (stereo not drawn) [Example 67, 5,7-Dichloro-4-(2-methoxy-1-phenylcarbamoyl-ethoxy)-naphthalene-2-carboxylic acid] were 1370 nM and 6490 nM.

Regarding `N#Cc1ccc(CNC(=O)COc2cc(C(=O)O)cc3cc(Cl)cc(Cl)c23)cc1` [Example 117, 5,7-Dichloro-4-[(4-cyano-benzylcarbamoyl)-methoxy]-naphthalene-2-carboxylic acid], the half-maximal inhibitory concentration (IC50) in assay [1] (setting [3]) is 1940 nM. Take `CN(C)C(=O)COc1cc(CN)ccc1NC(=O)COc1cc(C(=O)O)cc2cc(Cl)cc(Cl)c12` [Example 123, 4-[(4-Aminomethyl-2-dimethylcarbamoylmethoxy-phenylcarbamoyl)-methoxy]-5,7-dichloronaphthalene-2-carboxylic acid]: the IC50 in assay [1] (setting [3]) is 113 nM.

Regarding `O=C(COc1cc(C(=O)O)cc2cc(Cl)cc(Cl)c12)Nc1cccc(CO)c1OCCO` [Example 124, 5,7-Dichloro-4-{[2-(2-hydroxy-ethoxy)-3-hydroxymethyl-phenylcarbamoyl]-methoxy}-naphthalene-2-carboxylic acid], the IC50 in assay [1] (setting [3]) was found to be 428 nM.

Turning to `O=C(COc1cc(C(=O)O)cc2cc(Cl)cc(Cl)c12)NCc1ccccc1OCc1nnn[nH]1` [Example 125, 5,7-Dichloro-4-{[2-(1H-tetrazol-5-ylmethoxy)-benzylcarbamoyl]-methoxy}-naphthalene-2-carboxylic acid], the IC50 in assay [1] (setting [3]) is 254 nM. `O=C(COc1cc(C(=O)O)cc2cc(Cl)cc(Cl)c12)Nc1cccnc1` [Example 127, 5,7-Dichloro-4-(pyridin-3-ylcarbamoylmethoxy)-naphthalene-2-carboxylic acid]: the IC50 in assay [1] (setting [3]) was found to be 499 nM. Still for that read-out and setting: in the case of `O=C(COc1cc(C(=O)O)cc2cc(Cl)cc(Cl)c12)Nc1ccccn1` [Example 129, 5,7-Dichloro-4-(pyridin-2-ylcarbamoylmethoxy)-naphthalene-2-carboxylic acid] it was 980 nM.
